Where a name gives a salt, the structure may show the parent alone. Read-outs that look alike come from different tables or passages of the source. A value given as a limit tells only on which side of the number the result lay.

One data set can be described thus: in vitro. Conditions: human, CC50 (uM) [SG].
Data set [1] deals with Huh7 cells expressing a subgenomic RNA replicon of Con1 (genotype 1b) sequence origin. The data set can be described thus: microbe, parasite or virus in culture. The note with it: Hepatitis C virus.
Where [2] appears, read: Huh-7, read-out: IC50 (uM) [SG].

As usually defined, the IC50 is the concentration that gives 50% inhibition. Molecule `Cc1cc(Oc2ccc(S(N)(=O)=O)cc2CN(C)C)ccc1Br` [Compound 61, 4-(4-bromo-3-methylphenoxy)-3-((dimethylamino)methyl)benzenesulfonamide] came in with a CC50 in “in vitro” of more than 50 µM. In data set [1] (setting [2]), the IC50 was 12.1 µM.

`CSc1ccc(Oc2ccc(CNS(C)(=O)=O)cc2CN(C)C)cc1C` [Compound 17, N-(3-((dimethylamino)methyl)-4-(3-methyl-4-(methylthio)phenoxy)benzyl)methanesulfonamide]: the CC50 in “in vitro” was more than 50 µM. Besides, the half-maximal inhibitory concentration (IC50) in data set [1] (setting [2]) stood at 22.7 µM.

With `Cc1ccc(O)c([C@H](CCN(C(C)C)C(C)C)c2ccccc2)c1` [Tolterodine (e.g., tartrate), Tolterodine, reference compound], inhibition in data set [1] (Huh-7) was half-maximal at 27.2 µM (IC50).

In data set [1] (Huh-7), `O=c1[nH]c(=O)n([C@H]2C[C@H](O)[C@@H](CO)O2)cc1C(F)(F)F` [Trifluridine, trifluridine, reference compound] came in with an IC50 of 0.38 µM.

On to `CC(C)[C@H](N)C(=O)O[C@@H]1[C@@H](CO)O[C@@H](n2ccc(N)nc2=O)[C@]1(C)O` [Valopicitabine (NM-283), Valopicitabine, reference compound], for which, in data set [1] (Huh-7), the midpoint of inhibition, the IC50, lay at 11.2 µM.

With `C[C@]12CC[C@H](O)CC1=CC[C@@H]1[C@@H]2CC[C@]2(C)C(=O)CC[C@@H]12` [Dehydroepiandrosterone, reference compound], the IC50 in data set [1] (Huh-7) was 11.2 µM.

The molecule `CCCCOc1cc(C(=O)OCCN(CC)CC)ccc1N` [Benoxinate (e.g., hydrochloride), benoxinate, reference compound] registered an IC50 in data set [1] (Huh-7) of 3.02 µM.

In turn, `CCN(CC)C(=S)SSC(=S)N(CC)CC` [Disulfiram, reference compound] came in with an IC50 in data set [1] (Huh-7) of 5.5 µM.

On to `Cc1cccc(CN2CCN(C(c3ccccc3)c3ccc(Cl)cc3)CC2)c1` (centres unmarked) [Meclizine, meclizine, reference compound], for which the IC50 in data set [1] (Huh-7) came to 14.6 µM.

`CC[C@H]1CN2CCc3cc(OC)c(OC)cc3[C@@H]2C[C@@H]1C[C@H]1NCCc2cc(OC)c(OC)cc21` [Emetine (e.g., dihydrochloride hydrate), Emetine, reference compound] registered a 50% inhibitory concentration (IC50) in data set [1] (Huh-7) of 0.03 µM.

On to `C=C1C[C@@H]2[C@H](CC[C@]3(C)C(=O)CC[C@@H]23)[C@@]2(C)C=CC(=O)C=C12` [Exemestane, reference compound], for which the midpoint of inhibition in data set [1] (Huh-7), the IC50, lay at 29 µM.

In turn, `CN(C)CCCC1(c2ccc(F)cc2)OCc2cc(C#N)ccc21` (centres unmarked) [Citalopram (e.g., hydrobromide), Citalopram, reference compound] came in with an IC50 in data set [1] (Huh-7) of 27.3 µM.

Regarding `O=C1[C@H]2CCCC[C@H]2C(=O)N1CCCCN1CCN(c2nsc3ccccc23)CC1` [Perospirone, reference compound], the midpoint of inhibition in data set [1] (Huh-7), the IC50, lay at 3.6 µM.

For the molecule `COC1=CC(=O)C[C@@H](C)[C@]12Oc1c(Cl)c(OC)cc(OC)c1C2=O` [Griseofulvin (e.g., microcrystalline), Griseofulvin, reference compound], half-maximal inhibition in data set [1] (Huh-7) (IC50) was put at 11.5 µM.

In data set [1] (Huh-7), `C[C@]12CCC(=O)C=C1CC[C@@H]1[C@@H]2CC[C@@]2(C)[C@H]1CC[C@]2(C)O` [Methyltestosterone, methyltestosterone, reference compound] yielded a concentration for half-maximal inhibition (IC50) of 19.1 µM.

Molecule `CC[N+](C)(CC)CCC[n+]1c(-c2ccccc2)c2cc(N)ccc2c2ccc(N)cc21` [Propidium (e.g., iodide), Propidium, reference compound] registered a concentration for half-maximal inhibition (IC50) in data set [1] (Huh-7) of 9.38 µM.

`CN1CCN(CCCN2c3ccccc3Sc3ccc(C(F)(F)F)cc32)CC1` [Trifluoperazine (e.g., hydrochloride), Trifluoperazine, reference compound] yielded a half-inhibitory concentration (IC50) in data set [1] (Huh-7) of 4.97 µM.

Turning to `Nc1ncnc2c1ncn2[C@@H]1O[C@H](CO)[C@@H](O)[C@@H]1O` [Vidarabine, vidarabine, reference compound], the concentration for half-maximal inhibition (IC50) in data set [1] (Huh-7) was determined as 26.7 µM.

`O=C(CCCCCCC(=O)NO)NO` [Suberohydroxamic acid, suberohydroxamic acid, reference compound] yielded a 50% inhibitory concentration (IC50) in data set [1] (Huh-7) of 4.02 µM.

Take `Nc1ccc(OCCCCCOc2ccc(N)cc2)cc1` [1,5-Bis(4-aminophenoxy)pentane, reference compound]: half-maximal inhibition in data set [1] (Huh-7) (IC50) was put at 1.7 µM.

In data set [1] (Huh-7), `CO[C@H]1/C=C/O[C@@]2(C)Oc3c(C)c(O)c4c(O)c(c5c(nc6cc(C)ccn65)c4c3C2=O)NC(=O)/C(C)=C\C=C\[C@H](C)[C@H](O)[C@@H](C)[C@@H](O)[C@@H](C)[C@H](OC(C)=O)[C@@H]1C` [Rifaximin, reference compound] returned an IC50 of 19.4 µM.

Regarding `O=C(O)Cc1cc(I)c(Oc2ccc(O)c(I)c2)c(I)c1` [Tiratricol, reference compound], the IC50 in data set [1] (Huh-7) is 15.6 µM.

As for `COc1cc(CNC(=O)CCCC/C=C/C(C)C)ccc1O` [Capsaicin, reference compound], the IC50 in data set [1] (Huh-7) was 11.7 µM.

In the case of `COC(=O)Nc1nc2ccc([S+]([O-])c3ccccc3)cc2[nH]1` (centres unmarked) [Oxfendazole, reference compound], it took 7.3 µM to reach half-maximal inhibition in data set [1] (Huh-7) (IC50).

In the case of `COc1cc(/C=C/C(=O)CC(=O)/C=C/c2ccc(O)c(OC)c2)ccc1O` [Curcumin, curcumin], in data set [1] (Huh-7), the IC50 worked out at 8.68 µM.

Regarding `Nc1ccn([C@@H]2O[C@H](CO)[C@@H](O)[C@@H]2O)c(=O)n1` [Cytarabine, reference compound], 0.117 µM corresponded to half-maximal inhibition in data set [1] (Huh-7) (IC50).

`Oc1ccc(OCc2ccccc2)cc1` [Monobenzone, reference compound]: it took 1.59 µM to reach half-maximal inhibition in data set [1] (Huh-7) (IC50).

`O=c1oc2cc(O)ccc2s1` [Tioxolone, reference compound] gave an IC50 in data set [1] (Huh-7) of 16.2 µM.

On to `N=c1ccn2c(n1)O[C@H]1[C@H](O)[C@@H](CO)O[C@H]12` [Cyclocytidine (e.g., hydrochloride), Cyclocytidine, reference compound], for which the half-inhibitory concentration (IC50) in data set [1] (Huh-7) is 0.183 µM.

In data set [1] (Huh-7), `CCN(CCCCOC(=O)c1ccc(OC)c(OC)c1)C(C)Cc1ccc(OC)cc1` (centres unmarked) [Mebeverine (e.g., hydrochloride), Mebeverine, reference compound] came in with an IC50 of 14.9 µM.

Molecule `CC(C)C[C@H]1C(=O)N2CCC[C@H]2[C@]2(O)O[C@](NC(=O)[C@@H]3C=C4c5cccc6[nH]c(Br)c(c56)C[C@H]4N(C)C3)(C(C)C)C(=O)N12` [Bromocriptine (e.g., mesylate), bromocriptine, reference compound] showed an IC50 in data set [1] (Huh-7) of 3.38 µM.

In data set [1] (Huh-7), `CCOc1cc(N)c(Cl)cc1C(=O)NCC1CN(Cc2ccc(F)cc2)CCO1` (centres unmarked) [Mosapride (e.g., citrate), mosapride, reference compound] registered an IC50 of 10.9 µM.

Consider `CCc1cn([C@H]2C[C@H](O)[C@@H](CO)O2)c(=O)[nH]c1=O` [Edoxudine, edoxudine, reference compound], for which, in data set [1] (Huh-7), 1.95 µM corresponded to half-maximal inhibition (IC50).

For `CCCC1O[C@@H]2C[C@H]3[C@@H]4CCC5=CC(=O)C=C[C@]5(C)[C@H]4[C@@H](O)C[C@]3(C)[C@]2(C(=O)CO)O1` (some centres unmarked) [Budesonide, budesonide, reference compound], it took 15.7 µM to reach half-maximal inhibition in data set [1] (Huh-7) (IC50).

`CN(C)CCOc1ccc(/C(=C(/CCCl)c2ccccc2)c2ccccc2)cc1` [Toremifene, reference compound] showed a half-inhibitory concentration (IC50) in data set [1] (Huh-7) of 15.9 µM.

In the case of `COc1cccc(Oc2ccc(Br)cc2CN(C)C)c1` [Compound 38, (5-bromo-2-(3-methoxyphenoxy)phenyl)-N,N-dimethylmethanamine], the Emax in data set [1] (Huh-7, read-out: Max Effect@CC30 (inhibition)) worked out at 42%.

Take `CC(C)c1nc(CN(C)C(=O)N[C@H](C(=O)N[C@@H](Cc2ccccc2)C[C@H](O)[C@H](Cc2ccccc2)NC(=O)OCc2cncs2)C(C)C)cs1` [Ritonavir, reference compound]: the 50% inhibitory concentration (IC50) in data set [1] (Huh-7) stood at 14.9 µM.

Regarding `COc1c(C)c2c(c(O)c1C/C=C(\C)CCC(=O)O)C(=O)OC2` [Mycophenolic Acid, Mycophenolic acid, reference compound], in data set [1] (Huh-7), the IC50 came out at 0.751 µM.

As for `Oc1ccc(-c2nc(-c3ccc(F)cc3)c(-c3ccncc3)[nH]2)cc1` [SB-202190, reference compound], in data set [1] (Huh-7), the IC50 was found to be 5.18 µM.

Regarding `CCOc1cc(CC(=O)N[C@@H](CC(C)C)c2ccccc2N2CCCCC2)ccc1C(=O)O` [Repaglinide, reference compound], in data set [1] (Huh-7), the 50% inhibitory concentration (IC50) was 12.2 µM.

`CCOC(=O)c1c(CSc2ccccc2)n(C)c2cc(Br)c(O)c(CN(C)C)c12` [Arbidol, arbidol, reference compound] yielded a 50% inhibitory concentration (IC50) in data set [1] (Huh-7) of 12.2 µM.

Consider `CNc1cc(S(N)(=O)=O)ccc1Oc1ccc(SC)c(C)c1` [Compound 62, 4-(3-methyl-4-(methylthio)phenoxy)-3-(methylamino)benzenesulfonamide], for which the CC50 in the data set “in vitro” is more than 50 µM.

In data set [1] (Huh-7), `CC(C)C(C(=O)OC(C#N)c1cccc(Oc2ccccc2)c1)c1ccc(Cl)cc1` (centres unmarked) [Fenvalerate] registered an IC50 of 18.9 µM.

In data set [1] (Huh-7), `Oc1cccc2c(O)nccc12` [1,5-Isoquinolinediol, reference compound] displayed a 50% inhibitory concentration (IC50) of 25.9 µM.

As for `O=C1C(CC[C@@H](O)c2ccc(F)cc2)[C@@H](c2ccc(O)cc2)N1c1ccc(F)cc1` (some centres unmarked) [Ezetimibe, ezitamibe, reference compound], in data set [1] (Huh-7), the midpoint of inhibition, the IC50, lay at 4.2 µM.

For the molecule `CC1(C)C(/C=C/C=C/C=C/C=C2\N(CCCCS(=O)(=O)O)c3ccc4ccccc4c3C2(C)C)=[N+](CCCCS(=O)(=O)[O-])c2ccc3ccccc3c21` [Indocyanine Green, reference compound], 8.13 µM corresponded to half-maximal inhibition in data set [1] (Huh-7) (IC50).

The molecule `O=c1[nH]cc(F)c(=O)[nH]1` [Fluorouracil, reference compound] displayed an IC50 in data set [1] (Huh-7) of 18.7 µM.

Consider `CN(C)CCCN1c2ccccc2Sc2ccccc21` [Promazine (e.g., hydrochloride), promazine, reference compound], for which half-maximal inhibition in data set [1] (Huh-7) (IC50) was put at 16.1 µM.

On to `C#C[C@]1(O)CC[C@H]2[C@@H]3CCc4cc(OC5CCCC5)ccc4[C@H]3CC[C@@]21C` [Quinestrol, reference compound], for which the 50% inhibitory concentration (IC50) in data set [1] (Huh-7) came to 5.43 µM.

The molecule `CC1(C)O[C@@H]2C[C@H]3[C@@H]4CCC5=CC(=O)CC[C@]5(C)[C@@]4(F)[C@@H](O)C[C@]3(C)[C@]2(C(=O)CCl)O1` [Halcinonide, halcinonide, reference compound] registered an IC50 in data set [1] (Huh-7) of 17.4 µM.

Consider `Nc1nc(F)nc2c1ncn2[C@@H]1O[C@H](CO)[C@@H](O)[C@@H]1O` [Fludarabine, reference compound], for which the half-inhibitory concentration (IC50) in data set [1] (Huh-7) was 4.47 µM.

These data come from patent publication US20100009970A1, “COMPOSITIONS AND METHODS FOR TREATMENT OF VIRAL DISEASES” (Combinatorx (Singapore) Pte. Ltd., priority 2008, published 2010).
